From patent publication US10639345B2, “Compositions for preserving photoreceptor cells, retinal pigment epithelial cells, or visual function” (Massachusetts Eye and Ear Infirmary, priority 2010, dated 2020) come the findings set out here.

The subject of test [1] is photoreceptors. Briefly: TUNEL-positive photoreceptors in ONL after experimental retinal detachment. Format: in vivo, rat. The note with it: day three after retinal detachment; subretinal Z-VAD 300 μM and/or Nec-1 400 μM at detachment.
For test [2], the system named is photoreceptors. Briefly: TUNEL-positive cells after retinal detachment in RIP-3−/− mice. It is filed as in vivo. Particulars: three days after retinal detachment.
Procedure: The role of RIP-3 in RIP-mediated programmed necrosis in photoreceptor loss after retinal detachment was investigated in RIP-3 knockout (RIP-3−/−) mice. TUNEL assays were used to measure the amount of apoptotic and necrotic cell death (Grasl-Kraupp et al., HEPTALOGY (1995) 21(5):1465-8). TUNEL and quantification of TUNEL positive cells in ONL were performed as described above by using the ApopTag Fluorescein In Situ Apoptosis Detection Kit (Millipore, Billerica, Mass.).
The target in the next test is T1, RIP-1 (Rattus norvegicus, UniProt D3ZYL0).
T1 construct: RIP-1 was immunoprecipitated from lysates of untreated retina and of retina treated with either vehicle, Nec-1, Z-VAD, or Nec-1+Z-VAD; from tissue; host or cells: retina (retinal lysates) of animals with experimental retinal detachment
T1 sequence (D3ZYL0 1-658): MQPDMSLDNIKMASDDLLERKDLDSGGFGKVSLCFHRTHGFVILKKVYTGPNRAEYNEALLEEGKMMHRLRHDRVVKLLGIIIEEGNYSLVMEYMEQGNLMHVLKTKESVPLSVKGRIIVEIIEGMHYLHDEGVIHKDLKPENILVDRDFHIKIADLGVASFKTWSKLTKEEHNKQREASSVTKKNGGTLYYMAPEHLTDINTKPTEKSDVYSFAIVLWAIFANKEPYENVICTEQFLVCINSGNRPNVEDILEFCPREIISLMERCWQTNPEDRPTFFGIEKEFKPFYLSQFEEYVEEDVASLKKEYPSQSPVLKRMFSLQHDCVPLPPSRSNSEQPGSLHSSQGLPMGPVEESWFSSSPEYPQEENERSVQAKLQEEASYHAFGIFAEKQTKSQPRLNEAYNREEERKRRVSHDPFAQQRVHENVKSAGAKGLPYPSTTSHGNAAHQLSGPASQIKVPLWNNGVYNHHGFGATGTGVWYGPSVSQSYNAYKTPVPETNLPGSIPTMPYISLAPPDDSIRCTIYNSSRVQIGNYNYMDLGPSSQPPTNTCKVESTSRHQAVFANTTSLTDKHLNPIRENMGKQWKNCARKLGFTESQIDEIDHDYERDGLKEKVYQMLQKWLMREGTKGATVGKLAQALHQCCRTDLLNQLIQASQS
Briefly: RIP-1 phosphorylation after retinal detachment (RIP-1 immunoprecipitation, anti-phosphoserine Western blot). It is filed as in vivo. The note with it: two days after retinal detachment; subretinal Z-VAD 300 μM and/or Nec-1 400 μM at detachment. The protocol:
Equal amount of retinal lysates (1 mg) were incubated with 1 μg anti-RIP-1 antibody (BD Biosciences) and 20 μl of Protein A/G Agarose beads (Thermo Scientific, Rockford, Ill.) at 4° C. overnight. Beads were washed 5 times with lysis buffer and TBS, and the immunopellets were then subjected to Western blotting.
RIP-1 is phosphorylated at several serine residues in its kinase domain during programmed necrosis and Nec-1 inhibits this phosphorylation (Degterev (2008) supra; Cho Y et al. (2009) Cell 137:1100-1111). To investigate the role of RIP-1 kinase in retinal detachment-induced photoreceptor death, the phosphorylation status of RIP-1 was first assessed by immunoprecipitating RIP-1 from the retina (FIG. 3A) and then blotting with an anti-phosphoserine antibody. RIP-1 was immunoprecipitated from retinal lysates. One mg of retinal lysates were incubated with anti-RIP-1 antibody and Protein A/G agarose beads. Extracts before (Pre) and after (Post) immunoprecipitation and the immunopellets (IP) were run on a 4-12% SDS-PAGE and blotted with anti-RIP-1 antibody. […]
To determine the effect of Nec-1 and a pan-caspase inhibitor on the phosphorylation of RIP-1, Z-VAD (300 μM) and/or a Nec-1 compound of Formula I-C (400 μM) were injected subretinally in the animal at the time of retinal detachment induction. […] Phosphorylation of RIP-1 was then assessed by Western blot analysis. […]

For a further test, the system named is AIF. Briefly: AIF nuclear translocation (AIF/TUNEL double staining) after retinal detachment. It is filed as in vivo. The note with it: three days after retinal detachment. The protocol: Immunohistochemistry (IHC) was performed as previously reported (Murakami Y et al. (2008) AM J PATHOL 173:1326-1338). Rabbit anti-AIF antibody (1:100; Cell Signaling Technology, Danvers, Mass.) was used as the primary antibody. The specimens were imaged by confocal microscopy using the Leica HCX APOL40× lens.
Immunofluorescence was performed as previously reported (Hisatomi et al. (2008) J CLIN INVEST 118:2025-2038. The enucleated eyes were frozen in OCT compound (Sakura Finetechnical Co., Tokyo, Japan). Five μm-thick sections were cut, air dried and fixed in cold acetone for 10 minutes. Rabbit anti-AIF antibody (1:100; Cell Signaling Technology, Danvers, Mass.) was used as the primary antibody and incubated at 4° C. overnight. A non-immune serum was used as a negative control. Alexa Fluor 488-conjugated goat anti-rabbit IgG was used as the secondary antibody and incubated at room temperature for one hour. The specimens were imaged by confocal microscopy using the Leica HCX APOL40× lens.
Apoptosis-inducing factor (AIF) is a caspase-independent inducer of cell death, which is released from the mitochondria and translocates into the nuclei during cell death (Susin S A et al. (1999) NATURE 397:441-446). […]

Where a SMILES comes first, the peptide text is derived from it. The star is where a group is joined. Cbz = O=C(OCc1ccccc1)*; CH2F = FC*

For `COC(=O)CC(NC(=O)C(C)NC(=O)C(NC(=O)OCc1ccccc1)C(C)C)C(=O)CF` (stereo not drawn) [Z-VAD, Benzyloxycarbonyl-Val-Ala-Asp(OMe)-fluoromethylketone] (Cbz-Val-Ala-Asp(OMe)-CH2F; configuration not given here), the “number of TUNEL-positive cells in the ONL” value with photoreceptors [1] is given as 1134.7±297.5 cells/mm^2. For the same compound, in the test on photoreceptors [2], the “number of TUNEL-positive cells” value is 407.7±188.9 cells/mm^2. At RIP-1, the RIP-1 phosphorylation result was “elevated”. In addition, in the test on AIF, the “AIF/TUNEL-double positive cells (AIF nuclear translocation)” value amounted to 1021.9±233.9 cells/mm^2.
